The target in test [1] is human glucagon receptor (hGCGR) (Homo sapiens, UniProt P47871). Nature of the test: cAMP production (HTRF) in CHO cells expressing hGCGR. The format is cell-based. Set-up: expressed in transfected cells. Particulars: cAMP in CHO hGCGR cells, geometric mean, read-out: hGluc-R EC50. The essentials:
(§1)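 Potency values represent EC50 from 4-parameter logistic curves of HTRF % Delta F signal. Receptor-expressing CHO cells (hGCGR 2×10^5 cells/mL, hGLP-1R 1×10^5 cells/mL) were exposed for 30 min at room temperature before two-step cAMP detection.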

Test [2] deals with human GLP-1 receptor (hGLP-1R) (Homo sapiens, UniProt P43220). Nature of the test: cAMP production (HTRF) in CHO cells expressing hGLP-1R. The format is cell-based. Set-up: expressed in transfected cells. The conditions noted are these: for EC50: cAMP in CHO hGLP-1R cells, geometric mean, read-out: hGLP-1R EC50; for % Relative Potency Ratio: % GLP-1R activity relative to GLP-1 / % GlucR activity relative to glucagon. Summed up: as §1
(cAMP levels reflect the balance of adenylyl cyclase and phosphodiesterase activity.)

The mark [3] stands for this setting: Table 7, peptides modified at position 20.
Where [4] appears, read: Table 6, peptides modified at position 17.

A word on the EC50: it is the midpoint of the concentration-response curve.

Where two headings read alike, the source gives them in different places. Starred links: 1 amine or outer side, 2 acyl side, 3 side chain; linkers in the order of their positions; H or OH if unused. Non-standard residues stand in square brackets, D forms with d. Residues, ends and D or L forms follow the SMILES beside them. Groups on a side chain read outwards from the residue. *: point of attachment. C18 diacid = O=C(O)CCCCCCCCCCCCCCCCC(=O)*; γGlu = O=C(O)[C@H](CCC(=O)[*:2])N[*:1]; Palmitoyl = CCCCCCCCCCCCCCCC(=O)*; αMeF = C[C@](N)(Cc1ccccc1)C(=O)O; PEG2 = NCCOCCOCCC(=O)O; AEEA = NCCOCCOCC(=O)O; Aib = CC(C)(N)C(=O)O

Sequence of human GLP-1 receptor (hGLP-1R) (P43220 24-463): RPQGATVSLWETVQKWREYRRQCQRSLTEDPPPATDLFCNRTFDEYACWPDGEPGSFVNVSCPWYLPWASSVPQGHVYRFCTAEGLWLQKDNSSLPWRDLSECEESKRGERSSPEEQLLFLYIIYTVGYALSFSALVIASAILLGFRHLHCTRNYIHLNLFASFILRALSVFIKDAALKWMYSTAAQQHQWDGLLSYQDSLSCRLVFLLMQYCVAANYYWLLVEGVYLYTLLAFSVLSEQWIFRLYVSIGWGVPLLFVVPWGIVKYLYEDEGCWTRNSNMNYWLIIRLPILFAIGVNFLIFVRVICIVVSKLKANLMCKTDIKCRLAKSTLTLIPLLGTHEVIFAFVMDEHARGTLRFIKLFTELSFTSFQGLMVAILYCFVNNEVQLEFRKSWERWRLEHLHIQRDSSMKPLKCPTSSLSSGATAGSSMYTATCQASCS
Sequence of human glucagon receptor (hGCGR) (P47871 26-477): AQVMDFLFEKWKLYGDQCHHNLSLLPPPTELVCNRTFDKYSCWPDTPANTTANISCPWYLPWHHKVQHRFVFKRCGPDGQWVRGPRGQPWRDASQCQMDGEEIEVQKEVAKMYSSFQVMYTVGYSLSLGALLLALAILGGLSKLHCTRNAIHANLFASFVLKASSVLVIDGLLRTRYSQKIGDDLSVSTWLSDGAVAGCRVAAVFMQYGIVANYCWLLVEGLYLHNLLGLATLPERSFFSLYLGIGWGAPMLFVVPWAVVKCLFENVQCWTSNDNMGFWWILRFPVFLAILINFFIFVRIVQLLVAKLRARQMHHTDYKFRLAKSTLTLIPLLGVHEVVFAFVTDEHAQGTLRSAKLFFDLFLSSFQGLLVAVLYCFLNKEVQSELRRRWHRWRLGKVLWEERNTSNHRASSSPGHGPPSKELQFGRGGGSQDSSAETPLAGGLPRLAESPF

Turning to `CC[C@H](C)[C@H](NC(=O)C(C)(C)NC(=O)[C@H](CCC(N)=O)NC(=O)[C@@H](NC(=O)[C@](C)(Cc1ccccc1)NC(=O)[C@H](CC(=O)O)NC(=O)[C@H](CCCCNC(=O)COCCOCCNC(=O)COCCOCCNC(=O)CC[C@H](NC(=O)CCCCCCCCCCCCCCCCC(=O)O)C(=O)O)NC(=O)[C@H](C)NC(=O)[C@H](C)NC(=O)[C@H](CCCNC(=N)N)NC(=O)[C@H](CO)NC(=O)[C@H](CC(=O)O)NC(=O)[C@H](CC(C)C)NC(=O)[C@](C)(Cc1ccccc1)NC(=O)[C@H](CCCCN)NC(=O)[C@H](CO)NC(=O)[C@@H](NC(=O)[C@H](CC(=O)O)NC(=O)[C@H](CO)NC(=O)[C@@H](NC(=O)[C@H](Cc1ccccc1)NC(=O)[C@H](CO)NC(=O)CNC(=O)[C@H](Cc1c[nH]cn1)NC(=O)C(C)(C)NC(=O)[C@@H](N)Cc1c[nH]cn1)[C@@H](C)O)C(C)C)C(C)C)C(=O)N[C@@H](C)C(=O)N[C@@H](CC(N)=O)C(=O)N[C@H](C(N)=O)[C@@H](C)O` [Peptide 285] (H-H[Aib]HGSFTSDVSK[αMeF]LDSRAAK([AEEA-AEEA-γGlu-C18 diacid])D[αMeF]VQ[Aib]IANT-NH2), the results for the EC50 in test [1] (setting [3]) and in test [2] (setting [3]) were 87 pM and 301 pM, respectively. The “% Relative Potency Ratio” value in test [2] (Table 7) was found to be 0.6.

Turning to `CC[C@H](C)[C@H](NC(=O)[C@H](CO)NC(=O)[C@H](CCC(=O)O)NC(=O)[C@@H](NC(=O)[C@H](Cc1ccccc1)NC(=O)[C@H](CC(=O)O)NC(=O)[C@H](CCCCNC(=O)COCCOCCNC(=O)CC[C@H](NC(=O)CCCCCCCCCCCCCCCCC(=O)O)C(=O)O)NC(=O)[C@H](C)NC(=O)C(C)(C)NC(=O)[C@H](CCCNC(=N)N)NC(=O)[C@H](CO)NC(=O)[C@H](CC(=O)O)NC(=O)[C@H](CC(C)C)NC(=O)[C@](C)(Cc1ccccc1)NC(=O)[C@H](CCCCN)NC(=O)[C@H](CO)NC(=O)[C@@H](NC(=O)[C@H](CC(=O)O)NC(=O)[C@H](CO)NC(=O)[C@@H](NC(=O)[C@](C)(Cc1ccccc1)NC(=O)[C@H](CO)NC(=O)CNC(=O)[C@H](Cc1c[nH]cn1)NC(=O)C(C)(C)NC(=O)[C@@H](N)Cc1c[nH]cn1)[C@@H](C)O)C(C)C)C(C)C)C(=O)N[C@@H](C)C(=O)N[C@@H](CC(N)=O)C(=O)N[C@H](C(N)=O)[C@@H](C)O` [Peptide 253] (H-H[Aib]HGS[αMeF]TSDVSK[αMeF]LDSR[Aib]AK([AEEA-γGlu-C18 diacid])DFVESIANT-NH2), the EC50 in test [1] (setting [3]) stood at 53.1 pM; in test [2] (setting [3]) it was 75.5 pM. For the same compound, the “% Relative Potency Ratio” value in test [2] (Table 7) was 1.4.

Regarding `CC[C@H](C)[C@H](NC(=O)[C@H](Cc1c[nH]c2ccccc12)NC(=O)[C@H](CCC(N)=O)NC(=O)[C@@H](NC(=O)[C@](C)(Cc1ccccc1)NC(=O)[C@H](CC(=O)O)NC(=O)[C@H](CCC(N)=O)NC(=O)[C@H](C)NC(=O)[C@H](C)NC(=O)[C@H](CCCCNC(=O)COCCOCCNC(=O)COCCOCCNC(=O)CC[C@H](NC(=O)CCCCCCCCCCCCCCCCC(=O)O)C(=O)O)NC(=O)[C@H](CO)NC(=O)[C@H](CC(=O)O)NC(=O)[C@H](CC(C)C)NC(=O)[C@](C)(Cc1ccccc1)NC(=O)[C@H](CCCCN)NC(=O)[C@H](CO)NC(=O)[C@@H](NC(=O)[C@H](CC(=O)O)NC(=O)[C@H](CO)NC(=O)[C@@H](NC(=O)[C@](C)(Cc1ccccc1)NC(=O)[C@H](CO)NC(=O)CNC(=O)[C@H](CCC(N)=O)NC(=O)C(C)(C)NC(=O)[C@@H](N)Cc1c[nH]cn1)[C@@H](C)O)C(C)C)C(C)C)C(=O)N[C@@H](C)C(=O)N[C@@H](CC(N)=O)C(N)=O` [Peptide 26] (H-H[Aib]QGS[αMeF]TSDVSK[αMeF]LDSK([AEEA-AEEA-γGlu-C18 diacid])AAQD[αMeF]VQWIAN-NH2), the EC50 in test [1] (setting [4]) was determined as 8900 pM; in test [2] (setting [4]), 80.6 pM. Moreover, in test [2] (Table 6), the “% Relative Potency Ratio” value turned out to be 218.5.

For the compound `CC(C)C[C@H](NC(=O)[C@H](Cc1c[nH]c2ccccc12)NC(=O)[C@H](CCCNC(=N)N)NC(=O)[C@@H](NC(=O)[C@H](Cc1ccccc1)NC(=O)[C@H](CC(=O)O)NC(=O)[C@H](CCC(N)=O)NC(=O)[C@H](C)NC(=O)[C@H](CCCNC(=N)N)NC(=O)[C@H](CCCCNC(=O)COCCOCCNC(=O)COCCOCCNC(=O)CC[C@H](NC(=O)CCCCCCCCCCCCCCCCCCC(=O)O)C(=O)O)NC(=O)[C@@H](NC(=O)[C@H](CC(=O)O)NC(=O)[C@H](CC(C)C)NC(=O)[C@](C)(Cc1ccccc1)NC(=O)[C@H](CCCCN)NC(=O)[C@H](CO)NC(=O)[C@@H](NC(=O)[C@H](CC(=O)O)NC(=O)[C@H](CO)NC(=O)[C@@H](NC(=O)[C@H](Cc1ccccc1)NC(=O)[C@@H](NC(=O)CNC(=O)[C@H](CCC(N)=O)NC(=O)C(C)(C)NC(=O)[C@@H](N)Cc1c[nH]cn1)[C@@H](C)O)[C@@H](C)O)C(C)C)[C@@H](C)O)C(C)C)C(=O)N[C@@H](CC(C)C)C(=O)N[C@@H](CCC(=O)O)C(=O)NC(C)(C)C(=O)N[C@@H](CCCCN)C(=O)O` [Peptide 503], the EC50 in test [1] (setting [4]) amounted to 84.9 pM; in test [2] (setting [4]) it was 81.2 pM. In test [2] (Table 6), the “% Relative Potency Ratio” value was determined as 2.1.

`CC[C@H](C)[C@H](NC(=O)C(C)(C)NC(=O)[C@H](C)NC(=O)[C@@H](NC(=O)[C@](C)(Cc1ccccc1)NC(=O)[C@H](CC(=O)O)NC(=O)[C@H](CCCCNC(=O)COCCOCCNC(=O)COCCOCCNC(=O)CC[C@H](NC(=O)CCCCCCCCCCCCCCCCC(=O)O)C(=O)O)NC(=O)[C@H](C)NC(=O)[C@H](C)NC(=O)[C@H](CCCNC(=N)N)NC(=O)[C@H](CO)NC(=O)[C@H](CC(=O)O)NC(=O)[C@H](CC(C)C)NC(=O)[C@](C)(Cc1ccccc1)NC(=O)[C@H](CCCCN)NC(=O)[C@H](CO)NC(=O)[C@@H](NC(=O)[C@H](CC(=O)O)NC(=O)[C@H](CO)NC(=O)[C@@H](NC(=O)[C@](C)(Cc1ccccc1)NC(=O)[C@H](CO)NC(=O)CNC(=O)[C@H](Cc1c[nH]cn1)NC(=O)C(C)(C)NC(=O)[C@@H](N)Cc1c[nH]cn1)[C@@H](C)O)C(C)C)[C@@H](C)CC)C(=O)N[C@@H](C)C(=O)N[C@@H](CC(N)=O)C(=O)N[C@H](C(N)=O)[C@@H](C)O` [Peptide 227] (H-H[Aib]HGS[αMeF]TSDVSK[αMeF]LDSRAAK([AEEA-AEEA-γGlu-C18 diacid])D[αMeF]IA[Aib]IANT-NH2): the EC50 in test [1] (setting [3]) was 27.2 pM; in test [2] (setting [3]), 70.5 pM. Also, the “% Relative Potency Ratio” value in test [2] (Table 7) is listed as 0.8.

Regarding `CCCCCCCCCCCCCCCC(=O)N[C@@H](CCC(=O)N[C@@H](CCC(=O)NCCOCCOCCC(=O)NCCOCCOCCC(=O)NCCCC[C@H](NC(=O)[C@H](CO)NC(=O)[C@H](CC(=O)O)NC(=O)[C@H](CC(C)C)NC(=O)[C@@H](NC(=O)[C@H](CCCCN)NC(=O)[C@H](CO)NC(=O)[C@@H](NC(=O)[C@H](CC(=O)O)NC(=O)[C@H](CO)NC(=O)[C@@H](NC(=O)[C@](C)(Cc1ccccc1)NC(=O)[C@H](CO)NC(=O)CNC(=O)[C@H](CCC(N)=O)NC(=O)[C@H](CO)NC(=O)[C@@H](N)Cc1c[nH]cn1)[C@@H](C)O)C(C)C)[C@@H](C)CC)C(=O)N[C@@H](C)C(=O)N[C@@H](C)C(=O)N[C@@H](CCC(N)=O)C(=O)N[C@@H](CC(=O)O)C(=O)N[C@@](C)(Cc1ccccc1)C(=O)N[C@H](C(=O)N[C@@H](CCC(=O)O)C(=O)N[C@H](C(=O)N[C@H](C(=O)N[C@@H](C)C(=O)N[C@@H](CC(N)=O)C(N)=O)[C@@H](C)CC)[C@@H](C)CC)C(C)C)C(=O)O)C(=O)O` [Peptide 114] (H-HSQGS[αMeF]TSDVSKILDSK([PEG2-PEG2-γGlu-γGlu-Palmitoyl])AAQD[αMeF]VEIIAN-NH2; N-terminus assumed), the EC50 in test [1] (setting [4]) amounted to 2.65 pM; in test [2] (setting [4]), 3.65 pM. Besides, in test [2] (Table 6), the “% Relative Potency Ratio” value was determined as 1.4.

For the compound `CC(C)C[C@H](NC(=O)[C@H](CC(C)C)NC(=O)[C@H](Cc1c[nH]c2ccccc12)NC(=O)[C@H](CCCNC(=N)N)NC(=O)[C@@H](NC(=O)[C@H](Cc1ccccc1)NC(=O)[C@H](CC(=O)O)NC(=O)[C@H](CCC(N)=O)NC(=O)[C@H](C)NC(=O)[C@H](CCCNC(=N)N)NC(=O)[C@H](CCCCNC(=O)COCCOCCNC(=O)COCCOCCNC(=O)CC[C@H](NC(=O)CCCCCCCCCCCCCCCCC(=O)O)C(=O)O)NC(=O)[C@@H](NC(=O)[C@H](CC(=O)O)NC(=O)[C@H](CC(C)C)NC(=O)[C@](C)(Cc1ccccc1)NC(=O)[C@H](CCCCN)NC(=O)[C@H](CO)NC(=O)[C@@H](NC(=O)[C@H](CC(=O)O)NC(=O)[C@H](CO)NC(=O)[C@@H](NC(=O)[C@H](Cc1ccccc1)NC(=O)[C@@H](NC(=O)CNC(=O)[C@H](CCC(N)=O)NC(=O)C(C)(C)NC(=O)[C@@H](N)Cc1c[nH]cn1)[C@@H](C)O)[C@@H](C)O)C(C)C)[C@@H](C)O)C(C)C)C(=O)N[C@@H](C)C(=O)NC(C)(C)C(=O)NCC(N)=O` [Peptide 476] (H-H[Aib]QGTFTSDVSK[αMeF]LDTK([AEEA-AEEA-γGlu-C18 diacid])RAQDFVRWLLA[Aib]G-NH2), the EC50 in test [1] (setting [4]) came out at 104 pM; in test [2] (setting [4]), 57.3 pM. Further, in test [2] (Table 6), the “% Relative Potency Ratio” value was 3.6.
